# Target: T1, Inhibitor of nuclear factor kappa-B kinase subunit beta (Homo sapiens, UniProt O14920)
# T1 sequence (O14920 whole entry): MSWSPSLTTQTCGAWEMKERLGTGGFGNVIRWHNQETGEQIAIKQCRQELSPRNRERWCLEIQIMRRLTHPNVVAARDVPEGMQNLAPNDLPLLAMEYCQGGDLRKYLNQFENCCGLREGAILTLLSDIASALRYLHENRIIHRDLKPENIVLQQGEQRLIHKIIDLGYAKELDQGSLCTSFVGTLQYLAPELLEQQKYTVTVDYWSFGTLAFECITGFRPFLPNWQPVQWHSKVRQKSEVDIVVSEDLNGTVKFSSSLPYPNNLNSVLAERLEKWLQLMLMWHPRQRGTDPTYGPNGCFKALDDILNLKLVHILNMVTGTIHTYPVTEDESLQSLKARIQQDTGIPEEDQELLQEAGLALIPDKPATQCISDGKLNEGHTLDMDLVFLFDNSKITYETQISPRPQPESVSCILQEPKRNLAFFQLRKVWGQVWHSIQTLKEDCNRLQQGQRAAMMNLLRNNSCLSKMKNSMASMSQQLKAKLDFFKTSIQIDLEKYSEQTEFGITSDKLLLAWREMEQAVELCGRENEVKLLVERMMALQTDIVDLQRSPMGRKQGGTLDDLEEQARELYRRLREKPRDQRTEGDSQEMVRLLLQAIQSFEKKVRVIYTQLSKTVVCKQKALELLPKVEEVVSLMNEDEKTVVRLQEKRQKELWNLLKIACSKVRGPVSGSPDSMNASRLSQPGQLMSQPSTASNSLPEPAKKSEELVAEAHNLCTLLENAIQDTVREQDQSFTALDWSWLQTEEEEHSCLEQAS
# Settings: read-out: IC50
row,IC50,SMILES
1,9690 nM,Cc1sc(N)c2c(=O)oc3c4ccccc4ccc3c12
2,2440 nM,Cc1c(-c2ccc3c(c2)COC3)sc(N)c1C#N

# Same assay, conditions: read-out: pIC50 (converted)
row,SMILES,IC50
1,CNc1nc2[nH]c(-c3ccc(F)cc3)cc2c2c1ncn2C,42.7 nM
2,CC(=O)c1cc2cc(Nc3nccc(-c4ccc(S(=O)(=O)N5CCNCC5)cc4)n3)ccc2o1,25.7 nM
3,CNc1nc2[nH]c(-c3cccc(CNC(=O)CCC(N)=O)c3)cc2c2c1ncn2C,21.9 nM
4,CNc1nc2sc(-c3ccc(SC)cc3)nc2c2c1ncn2C,28.2 nM
5,CCNC(=O)c1ccc(-c2nc3c(nc(NC)c4ncn(C)c43)s2)cc1,15.1 nM
6,CNc1nc2[nH]c(-c3cccc(OC)c3)cc2c2c1ncn2C,7.94 nM
7,O=S(=O)(c1ccc(-c2ccnc(Nc3cc(F)cc(F)c3)n2)cc1)N1CCNCC1,117 nM
8,NC(=O)Nc1sc(C#CC2CC2)cc1C(N)=O,263 nM
9,Cc1cnc2c(NCCN)nc3cc(-c4ncc[nH]4)sc3n12,447 nM
10,Cc1cnc2c(NCCN)nc3cc(-c4ccc[nH]4)sc3n12,2.51 nM
11,O=C1C=CC(c2ccc(-c3ccnc(Nc4ccc5ncsc5c4)n3)cc2)C=C1,2510 nM
12,CNc1nc2sc(-c3ccc(F)cc3)nc2c2c1ncn2C,26.3 nM
13,CNc1nc2[nH]c(-c3cccc(C#N)c3)cc2c2c1ncn2C,7.08 nM
14,CNc1nc2cc(-c3nccs3)sc2c2c1ncn2C,229 nM
15,CNCCNS(=O)(=O)c1ccc(-c2ccnc3[nH]ccc23)cc1,32.4 nM
16,C#Cc1c(C2CCNCC2)cc(-c2c(O)cccc2OCC2CC2)nc1N,8.51 nM
17,CNc1nc2sc(-c3ccc(N4CC=CCC4)cc3)nc2c2c1ncn2C,33.1 nM
18,CNc1nc2sc(-c3ccc(C(=O)NCc4cccs4)cc3)nc2c2c1ncn2C,15.1 nM
19,N#Cc1c(C2CCCNC2)cc(-c2c(O)cccc2OCC2CCCCC2)nc1N (configuration not stated),26.3 nM
20,CNC(=O)c1ccc(-c2nc3c(nc(NC)c4ncn(C)c43)s2)cc1,15.1 nM
21,CNc1nc2[nH]c(-c3cccc(CNC(=O)CCOC)c3)cc2c2c1ncn2C,12 nM

# The remaining lines, values ahead:
row,IC50,SMILES
1,9.12 nM,N#Cc1c(C2CCCNC2)cc(-c2c(O)cccc2OCc2ccccc2)nc1N (configuration not stated)
2,39.8 nM,Cc1cnc2c(NCCN3CCNCC3)nc3cc(-c4ccccc4)sc3n12
3,100000 nM,NC(=O)c1sc(-c2ccccc2)cc1NC(=O)NCc1ccccc1
4,10000 nM,NC(=O)Nc1ncc(-c2ccccc2)nc1C(N)=O
5,20000 nM,CN(C)c1ccc(-c2cc(-c3ccccc3O)nc(N)c2C#N)cc1
6,6030 nM,c1ccc(Oc2ccc(-c3ccnc(Nc4ccc5ncsc5c4)n3)cc2)cc1
7,> 100000 nM,CN(CCN)C(=O)c1ccc(Nc2nccc(-c3cc4ccccc4s3)n2)cc1
8,15800 nM,COc1c(C(N)=O)cc(-c2ccccc2)cc1-c1ccncc1
9,100000 nM,NC(=O)Nc1sc(C#Cc2cccc(NC(=O)c3ccccn3)c2)cc1C(N)=O
10,1580 nM,NC(=O)c1sc(-c2ccccc2)cc1NS(=O)(=O)c1ccc(F)cc1
11,100000 nM,CNC(=O)c1sc(-c2ccccc2)cc1NC(N)=O
12,15800 nM,CNC(=O)c1cc(-c2ccc(F)cc2)cc(-c2ccc(S(C)(=O)=O)cc2)c1N
13,21.9 nM,CNc1nc2cc(-c3ccccc3)sc2n2c(C)cnc12
14,316 nM,CN(c1ccc(-c2ccnc3[nH]ccc23)cc1)S(C)(=O)=O
15,9.12 nM,CNc1nc2cc(-c3cccc(CCC(=O)O)c3)sc2n2c(C)cnc12
16,15800 nM,CNC(=O)c1cc(-c2ccc(F)cc2)cc(-c2ccc(N3CCCCC3)cc2)c1N
17,25.1 nM,NC(=O)Nc1cc(-c2ccccc2)sc1C(N)=O
18,20000 nM,CCS(=O)(=O)N1CCC(COc2cc3cnccc3cc2-c2ccccc2)CC1
19,39.8 nM,NC(=O)Nc1cc(-c2cccc(Cl)c2)sc1C(N)=O
20,20000 nM,N#Cc1c(-c2ccc([N+](=O)[O-])cc2)cc(-c2ccccc2O)nc1N
21,3240 nM,NC(=O)c1sc(-c2ccccc2)cc1N

# Target: T2, Inhibitor of nuclear factor kappa-B kinase subunit beta (Homo sapiens) (UniProt O14920)
# T2 sequence (whole entry): T1 sequence (O14920 whole entry)
# Assay: Inhibition of human IKKbeta using GST-IkappaBalpha as substrate at 10 uM
# Settings: not given
row,SMILES,inhibition
1,CC[C@H](OC(=O)Nc1ccc(S(=O)(=O)N2CCCCC2)cc1)c1ccco1,44.3%
2,NC(=O)C[C@H](Nc1ncc2c(n1)-c1ccccc1OC2)C(=O)O,44.4%
3,Cc1c(-c2ccc3c(c2)COC3)sc(N)c1C#N,92.4%
4,COC(=O)c1ccc(NC(=O)COc2ccc(S(=O)(=O)NC(C)(C)C)cc2)cc1,23.8%
5,CCOC(=O)c1c(N)oc(=O)c2c1-c1ccccc1C2=O,43.8%
6,CCCCc1ccc(-n2cnc3c(=O)[nH]c(N)nc32)cc1,41.5%
7,N#Cc1c(C2CCNCC2)cc(-c2c(O)cccc2OCC2CC2)nc1N,100%

# More lines, now with the values ahead:
row,inhibition,SMILES
1,47.1%,Nc1nc(=O)c2ncn(-c3cccc(-c4ccccc4)c3)c2[nH]1
2,29.6%,O=C(c1ccco1)c1coc2c1cc(O)c1ccccc12
3,64.1%,Cc1sc(N)c2c(=O)oc3c4ccccc4ccc3c12
4,23.4%,Cc1ccc(-c2cc3c(c(N)c2C#N)c(=O)oc2ccccc23)o1
5,44.8%,OC[C@@H](O)[C@@H](O)[C@H](O)c1nn(-c2ccccc2)c2nc3ccc(Cl)cc3nc12
6,36.7%,CC(C)NC[C@@H](O)COc1cccc2[nH]c3ccccc3c12
